What all share (format): cell-based
Data set [1] has as its system COS-7. As to the kind of experiment: Cytotoxic evaluation on gene transfer (Example 5). The conditions noted are these: compared with Lipofectamine LTX and FuGENE HD.
In data set [2] the test system is COS-7. As to the kind of experiment: Gene transfer (GFP expression, luciferase activity) versus commercial agents (Example 5). The conditions noted are these: COS-7 adherent cells; compared with Lipofectamine LTX and FuGENE HD. On the procedure: (§1) pEGFP-C1 expressing a green fluorescent protein was used as a gene transfer plasmid; and adherent cells COS-7 and Hela-S3, and non-adherent cells K562, which were established cell lines, were used as target cells. Lipoplexes were individually prepared using DL-U2. Then, gene transfer was performed.
(COS7 cells: 2.0×10^4 cells/well·DMEM+10% FBS (Pe/St) 500 μl)
(§2) (i) A 20 mM Tris-HCl (pH 7.4) buffer was dispensed into three tubes at 35.5 μl (for NP ratio=6) for each of two tubes, and 23 μl (for NP ratio=8) for the remaining tube.
(§3) (ii) 1.0 μg of plasmid DNA (pCAG-GFP) was added to each of the three tubes prepared in step (i) at 2 μl (1.0 μg), and the contents were stirred.
(§4) (iii) A DL-U2 liposome solution was added to the three tubes prepared in step (ii) at 37.5 μl (N/P ratio=6) for each of two tubes, and 50 μl (N/P ratio=8) for the remaining tube.
(§5) (iv) 25 μl of an Opti-MEM (registered trademark) I Reduced-Serum Medium was further added, and the whole was thoroughly mixed and allowed to stand at room temperature for 5 minutes.
(v) 100 μl of the DL-plasmid DNA complex solution (N/P ratio=6) was added and mixed with the COS7 cells. […]
(§6) (vii) 48 hours later, luciferase activity was measured according to the protocol of the luciferase assay system (Promega, E1501) (relative values based on the activity of LTX defined as 1 were graphed).

The subject of the next data set is HeLa-S3. The description is as above. The conditions noted are these: HeLa-S3 adherent cells; compared with Lipofectamine LTX and FuGENE HD. How it is done:
as §1
(HeLa—S3 cells: 3×10^4 cells/well·DMEM+10% FBS (Pe/St) 500 μl)
as §2, §3, §4, §5
100 μl of the DL-plasmid DNA complex solution (N/P ratio=6) was added and mixed with the HeLa—S3 cells. […]
as §6

The structures appear in SMILES notation.

As for `CCCCCCCC/C=C\CCCCCCCCN(CCCCCCCC/C=C\CCCCCCCC)CCC(=O)NCCN(CCC(=O)NCCN)CCC(=O)NCCN` (racemic) [DL-G1-U2], the cytotoxicity result in the data set on COS-7 [1] is “lower cytotoxicity”. The gene transfer activity result in the data set with COS-7 [2] and with HeLa-S3 was “excellent gene transfer activity” in each case.

(Values after patent publication US8557875B2, “Gene transfer agent composition containing polyamidoamine dendron” (Public University Corporation Osaka Prefecture University, priority 2009, dated 2013).)
